# Assay results from patent US6361788B1, “Synergistic biocide composition” (Thor Chemie GmbH, priority 1997, dated 2002).
# Like-named read-outs stand apart in the source and are kept apart here.
# Key:
# Type in all cases: cell-based
# Penicillium funiculosum = assay: MIC and synergy of MIT/BIT (1:1) and OIT in Sabouraud maltose broth, 72 h; conditions: for growth of the microorganism: MIT/BIT ppm = row head c0; on growth of the microorganism: key: growth of the microorganism took place (symbol '+'); or not (symbol '−')
# Procedure: (§1) In all the examples in which an active substance mixture of MIT and BIT as well as additionally a further active biocidal substance was used, the weight ratio of MIT to BIT was 1:1.
# (§2) The synergy index is calculated according to the method of F. C. Kull et al., Applied Microbiology, Vol. 9 (1961), p. 538. Here the synergy index is calculated using the following formula:
# (§3) Synergy index SI=Qa/QA+Qb/QB.
# The synergy of an active substance mixture that contains OIT in addition to MIT and BIT, against the microorganism Penicillium funiculosum is shown as in Example 1.
# (§4) The test batches contained a Sabouraud maltose broth as a nutrient medium. The spore concentration was 10^6 per mL. The incubation time was 72 h at 25° C. Each sample was incubated on an incubation shaker at 120 rpm.
# Aspergillus niger = assay: as above
# Procedure: as §1, §2, §3
# The synergy of an active substance mixture that contains 2-n-octylisothiazolin-3-one (OIT) in addition to MIT and BIT, against the microorganism Aspergillus niger is shown as in Example 1.
# as §4
# Saccharomyces cerevisiae = assay: as above
# Procedure: as §1, §2, §3
# The synergy of an active substance mixture that contains OIT in addition to MIT and BIT, against the microorganism Saccharomyces cerevisiae is shown as in Example 1.
# The test batches contained a Sabouraud maltose broth as a nutrient medium. The cell density was 10^6 cells/mL. The incubation time was 72 h at 25° C. Each sample was incubated on an incubation shaker at 120 rpm.
# Pseudomonas aeruginosa [1] = assay: MIC and synergy of MIT/BIT (1:1) and OIT in Müller-Hinton broth, 144 h
# Procedure: as §1, §2, §3
# The synergy of an active substance mixture that contains OIT in addition to MIT and BIT, against the microorganism Pseudomonas aeruginosa is shown as in Example 1.
# The test batches contained a Müller-Hinton broth as a nutrient medium. The cell density was 10^6 cells/mL. The incubation time was 144 h at 25° C. Each sample was incubated on an incubation shaker at 120 rpm.
# Escherichia coli = assay: MIC and synergy of MIT/BIT (1:1) and HCHO in Müller-Hinton broth, 48 h
# Procedure: as §2, §3
# The test batches contained a Müller-Hinton broth as a nutrient medium. The cell density was 10^6 cells/mL. The incubation time was 48 b at 25° C. Each sample was incubated on an incubation shaker at 120 rpm.
# Pseudomonas aeruginosa [2] = assay: as above
# Procedure: as §2, §3
# The test batches contained a Müller-Hinton broth as a nutrient medium. The cell density was 10^6 cells/mL. The incubation time was 48 h at 25° C. Each sample was incubated on an incubation shaker at 120 rpm.
compound,measurement,setting,value
"CCCCCCCCn1sccc1=O [OIT, 2-n-octylisothiazolin-3-one]",growth of the microorganism,"Penicillium funiculosum; OIT 0.25 ppm, 72 h",+
same,growth of the microorganism,"Penicillium funiculosum; OIT 0.5 ppm, 72 h",+
same,growth of the microorganism,"Penicillium funiculosum; OIT 1 ppm, 72 h",+
same,growth of the microorganism,"Penicillium funiculosum; OIT 2.5 ppm, 72 h",+
same,growth of the microorganism,"Penicillium funiculosum; OIT 5 ppm, 72 h",−
same,MIC at OIT concentration Qb,"Penicillium funiculosum; OIT share at the MIC, Penicillium funiculosum, 72 h",5 ppm
same,Qb/QB,"Penicillium funiculosum; Penicillium funiculosum, 72 h",1.00
same,Synergy index Qa/QA + Qb/QB,"Penicillium funiculosum; Penicillium funiculosum, 72 h",1.00
same,Total concentration MIT/BIT + OIT,"Penicillium funiculosum; at the MIC, Penicillium funiculosum, 72 h",5 ppm
same,MIC value,"Penicillium funiculosum; used alone, 72 h at 25° C.",5 ppm
same,Qb/QB,"Aspergillus niger; Aspergillus niger, 72 h",1.00
same,Synergy index Qa/QA + Qb/QB,"Aspergillus niger; Aspergillus niger, 72 h",1.00
same,MIC at OIT concentration Qb,"Aspergillus niger; OIT share at the MIC, Aspergillus niger, 72 h",5 ppm
same,Total concentration MIT/BIT + OIT,"Aspergillus niger; at the MIC, Aspergillus niger, 72 h",5 ppm
same,MIC value,"Aspergillus niger; used alone, 72 h at 25° C.",5 ppm
same,MIC at OIT concentration Qb,"Saccharomyces cerevisiae; OIT share at the MIC, Saccharomyces cerevisiae, 72 h",5 ppm
same,Qb/QB,"Saccharomyces cerevisiae; Saccharomyces cerevisiae, 72 h",1.00
same,Synergy index Qa/QA + Qb/QB,"Saccharomyces cerevisiae; Saccharomyces cerevisiae, 72 h",1.00
same,Total concentration MIT/BIT + OIT,"Saccharomyces cerevisiae; at the MIC, Saccharomyces cerevisiae, 72 h",5 ppm
same,MIC value,"Saccharomyces cerevisiae; used alone, 72 h at 25° C.",5 ppm
same,MIC at OIT concentration Qb,"Pseudomonas aeruginosa [1]; OIT share at the MIC, Pseudomonas aeruginosa, 144 h",900 ppm
same,Qb/QB,"Pseudomonas aeruginosa [1]; Pseudomonas aeruginosa, 144 h",1.00
same,Synergy index Qa/QA + Qb/QB,"Pseudomonas aeruginosa [1]; Pseudomonas aeruginosa, 144 h",1.00
same,Total concentration MIT/BIT + OIT,"Pseudomonas aeruginosa [1]; at the MIC, Pseudomonas aeruginosa, 144 h",900 ppm
same,MIC value,"Pseudomonas aeruginosa [1]; used alone, 144 h at 25° C.",over 800 ppm
"C=O [HCHO, formaldehyde]",Qb/QB,Escherichia coli; 48 h,1.00
same,Synergy index Qa/QA + Qb/QB,Escherichia coli; 48 h,1.00
same,MIC,"Escherichia coli; 48 h, read-out: MIC at HCHO concentration Qb",300 µg/mL
same,Total concentration MIT/BIT + HCHO,"Escherichia coli; at the MIC, 48 h",300 ppm
same,MIC,Escherichia coli; read-out: MIC value,300 µg/mL
same,Qb/QB,Pseudomonas aeruginosa [2],1.00
same,Synergy index Qa/QA + Qb/QB,Pseudomonas aeruginosa [2],1.00
same,Total concentration MIT/BIT + HCHO,Pseudomonas aeruginosa [2]; at the MIC,300 ppm
same,MIC,Pseudomonas aeruginosa [2]; read-out: MIC at HCHO concentration Qb,300 µg/mL
same,MIC,Pseudomonas aeruginosa [2]; read-out: MIC value,300 µg/mL
